Data set [1] concerns Human diffuse large B lymphoma cell TMD8. The experiment in a line: Inhibition of proliferation of TMD8 cells in vitro (MTT, 72 h). Format: cell-based. Here is the method: (§1) Cell suspensions (Ramos: 10000 cells/well; TMD8: 12000 cells/well) were seeded in a 96-well plate, placed in an incubator for 2 hours at 37° C., after the cell state was stabilized, different concentrations of tested compounds were added to each well (each concentration was set with 3 duplicate wells), and blank control (only containing culture solution, but not containing cells), negative control (only adding cells, but not adding compounds) and positive compound control were set at the same time. After 72 h treatment, 20 μL MTT (5 mg/ml) was added to each well and incubated for 4 h at 37° C. 100 μL triple solution (10% SDS, 5% isobutanol, 0.01 M HCl) was added and placed overnight at 37° C. The OD value was measured with microplate enzyme-labeled instrument SPECTRA MAX Plus 384 with adjustable wavelength at 570 nm.
(§2) The inhibition rate of the compound was obtained by the following formula: […]
(§3) The IC50 value was obtained by four-parameter regression using the software attached to the microplate reader.

The nature of data set [2]: Oral bioavailability of earlier compound. The settings on record: in vivo.
Data set [3] deals with Human B lymphoma cell Ramos (Burkitt lymphoma). Description: Inhibition of proliferation of Ramos cells in vitro (MTT, 72 h). Format: cell-based. The protocol: as §1, §2, §3
Data set [4] in a line: Further study of metabolism of earlier compounds. It is filed as in vitro ADME. Particulars: 4-position of terminal phenyl easy to be oxidized.
Data set [5] relates to human lymphoma TMD8 xenograft. Description: Anti-tumor activity in vivo, TMD8 xenograft tumor model. Also on record: species or system Mice. Particulars: for Tumor volume: 17th day, mean ± SEM. Here is the method: (§4) • 1) Species: Mice • 2) Strain: CB-17 SCID • 3) Age and body weight: 6-8 weeks; 18-22 g • 4) Sex: Female • 5) Supplier: Beijing Vital River Laboratory Animal Technology Co., Ltd. REC-1 Xenograft Tumor Model • 1) Species: Mice • 2) Strain: BALB/c nude mice • 3) Age and body weight: 6-8 weeks; 17-20 g • 4) Sex: Female • 5) Supplier: Shanghai Lingchang Biotechnology Co., Ltd.
(§5) Conventional treatment was carried out twice a week. When the cell saturation was 80%-90%, the cells were collected, counted and inoculated.
Tumor cell inoculation: 0.2 mL 10×10^6 Human lymphoma TMD8 cells were subcutaneously inoculated into the right back of each nude mouse (PBS:Matrigel=1:1). When the average tumor volume reached 104 mm^3, group administration began. Each group of 6 mice was grouped according to the tumor volume by random grouping software based on Excel.
(§6) The health status and death status of animals were monitored every day. Routine examinations included observing the effects of tumor growth and drug treatment on daily behaviors of animals, such as behavioral activities, food intake and water intake (visual inspection only), weight change (weight measurement three times a week), appearance signs or other abnormal conditions. Based on the number of animals in each group, the number of animal deaths and side effects in each group were recorded.
(§7) Tumor measurement and experimental indexes: the experimental index was to investigate whether the tumor growth is inhibited, delayed or cured. The tumor diameter was measured with vernier caliper three times a week.
(§8) TGI (%), reflecting the tumor growth inhibition rate.
(§9) Relative tumor proliferation rate T/C (%): the calculation formula is as follows:
(§10) T/C %=TRTV/CRTV×100% (TRTV: Relative tumor volume in treatment group; CRTV: Relative tumor volume in negative control group).
(§11) Statistical analysis: Statistical analysis, including the mean value of tumor volume and standard error (SEM) at each time point in each group. […] Three or more groups were compared with one-way ANOVA. If there were significant differences in F values, Games-Howell method was used to test. All data were analyzed with SPSS 17.0. p<0.05 was considered as significant difference.

Data set [6] in a line: Metabolic stability test in mouse liver microsomes. It is filed as in vitro ADME. Particulars: MLM, 0.1 μM drug, 0.33 mg/ml microsomes, NADPH. Here is the method:
(§12) Liver microsomes were incubated in a 96-well plate, and the volume of each incubated system was 450 μL with a medium of 0.1 M Tris buffer (pH 7.4), including liver microsomes with a final concentration of 0.33 mg/ml, 0.1 μM of tested drugs and 5.0 mM MgCl2, 0.01% DMSO, 0.005% BSA and 1.0 mM NADPH. Incubated at 37° C. for 10 min, NADPH was added to initiate the reaction, and 50 μL was taken out and added with the same volume of methanol to terminate the reaction after 0, 7, 17, 30 and 60 min, respectively.
(§13) S17016 in incubated samples was determined by LC/MS/MS with electrospray ionization (ESI) as the ion source and multi-reaction monitoring (MRM) as the scanning mode.
(§14) The experimental results of metabolic stability in vitro of S17016 in different liver microsomes (HLM: human liver microsomes; RLM: rat liver microsomes; MLM: mouse liver microsomes) were shown in Table 9 and FIG. 3 below.
(Liver microsomes are vesicles of endoplasmic reticulum, rich in cytochrome P450 enzymes.)

The target in data set [7] is BTK tyrosine kinase protein (Homo sapiens, UniProt Q06187). Description: Inhibitory activity evaluation of Bruton kinase (BTK) at molecular level (ELISA). Particulars: ATP 5 μM. Format: biochemical. A general note: ELISA stands for enzyme-linked immunosorbent assay.
Experimental: The enzyme reaction substrate Poly (Glu, Tyr)4:1 was diluted with potassium-free PBS (10 mM sodium phosphate buffer, 150 mM NaCl, pH 7.2-7.4) to 20 μg/ml, and coated enzyme plate. After reacting at 37° C. for 12-16 hours, the plate was washed three times with 200 μL/well T-PBS (PBS containing 0.1% Tween-20) and dried in 37° C. oven for 1-2 hours. 49 μL/well ATP solution (final concentration was 5 μM) diluted with a reaction buffer (50 mM HEPES pH 7.4, 50 mM MgCl2, 0.5 mM MnCl2, 0.2 mM Na3VO4, 1 mM DTT) was firstly added into the substrate-coated plate. 1 μL compound to be tested (compound well) or DMSO with corresponding concentration (negative control well) was added into each well, and enzyme-free control well was set up for each experiment. Then 50 μL of BTK tyrosine kinase protein diluted with reaction buffer was added to start the reaction.
The above reaction system was placed in a shaking table (100 rpm) for 1 hour at 37° C., then the plate was washed with T-PBS for three times, and the primary antigen PY99 100 μL/well (Santa Cruz) was added, and the reaction was carried out in a shaking table for 0.5 hours at 37° C. […]
Data set [8] in a line: Metabolic stability test in human liver microsomes. Format: in vitro ADME. The settings on record: HLM, 0.1 μM drug, 0.33 mg/ml microsomes, NADPH. The protocol:
as §12, §13, §14

Data set [9] is described as follows: Metabolic stability test in rat liver microsomes. It is filed as in vitro ADME. The settings on record: RLM, 0.1 μM drug, 0.33 mg/ml microsomes, NADPH. The protocol:
as §12, §13, §14

The subject of data set [10] is human mantle cell lymphoma REC-1 xenograft. The experiment in a line: Anti-tumor activity in vivo, REC-1 xenograft tumor model. Also on record: species or system Mice. Particulars: for T/C (%) / TGI (%): day 15; for Tumor volume (mm^3) (Day 15): day 15, mean ± SEM. The protocol: as §4, §5
0.2 mL 5×10^6 REC-1 cells were subcutaneously inoculated into the right back of each nude mouse (PBS:Matrigel=1:1). When the average tumor volume reached 100 mm^3, group administration began. Each group of 6 mice was grouped according to the tumor volume by random grouping software based on Excel.
as §6, §7, §8, §9, §10, §11

A further data set in a line: in vivo. Particulars: male, Sprague-Dawley (SD), rat. The protocol:
Fourteen SD rats, male, weighing 200-220 g, were randomly divided into 4 groups (4/3 rats in each group) and given the tested compounds by intragastric administration and intravenous administration respectively.
0.5% sodium carboxymethyl cellulose (CMC-Na) containing 1% Tween 80 was formulated for intragastric administration, and 5% DMSO/5% Tween 80/90% normal saline was formulated for intravenous administration.
Fasting for 12 hours and drinking water freely before the test. Eat uniformly 2 hours after administration.
At the above set time point, 0.3 ml of venous blood was taken through the posterior venous plexus of the rat eyeball, placed in a heparinized test tube, centrifuged at 11000 rpm for 5 minutes, and the plasma was separated, frozen in the fridge at −20° C.
The concentration of S17016 in rat plasma was determined by LC/MS/MS.

Another data set has as its target BTK (Homo sapiens, UniProt Q06187). The settings on record: disclosed in patent CN108101905A; cited from earlier work.

Where “and” joins values, the source holds several entries; their conditions need not be identical. Equal values may be shown once.

BTK tyrosine kinase protein, sequence (Q06187 whole entry): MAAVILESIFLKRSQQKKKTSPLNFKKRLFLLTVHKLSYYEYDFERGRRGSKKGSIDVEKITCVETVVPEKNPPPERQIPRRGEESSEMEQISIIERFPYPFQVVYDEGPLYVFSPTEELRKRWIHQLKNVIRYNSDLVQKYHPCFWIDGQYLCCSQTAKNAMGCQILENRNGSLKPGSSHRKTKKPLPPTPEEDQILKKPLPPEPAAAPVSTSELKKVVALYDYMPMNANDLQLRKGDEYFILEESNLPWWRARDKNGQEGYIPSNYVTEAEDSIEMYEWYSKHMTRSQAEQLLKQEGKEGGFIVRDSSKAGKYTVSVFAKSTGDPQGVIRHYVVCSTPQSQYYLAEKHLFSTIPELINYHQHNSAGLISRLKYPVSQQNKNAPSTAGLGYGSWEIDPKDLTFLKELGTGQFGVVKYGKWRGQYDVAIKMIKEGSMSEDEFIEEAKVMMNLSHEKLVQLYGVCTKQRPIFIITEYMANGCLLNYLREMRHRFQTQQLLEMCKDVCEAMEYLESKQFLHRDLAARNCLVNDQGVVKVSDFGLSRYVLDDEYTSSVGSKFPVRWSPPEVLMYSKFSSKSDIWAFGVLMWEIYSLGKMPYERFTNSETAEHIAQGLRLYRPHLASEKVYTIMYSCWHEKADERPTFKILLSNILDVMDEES
BTK, sequence (Q06187 whole entry): as above

By IC50 is commonly meant the concentration that gives 50% inhibition. Consider `C=CC(=O)NC1Cn2c(c(-c3ccc(C(=O)Nc4ccccn4)cc3)c3c(N)ncnc32)C1=C` (stereo not drawn) [Compound S20s], for which the IC50 in data set [1] was 0.004 µM; in data set [3], 14.3 µM. Besides, in [2], the oral bioavailability entry is on record as “not ideal”.

`C=C1c2c(-c3ccc(Oc4ccccc4)cc3)c3c(N)ncnc3n2CC1NC(=O)C#CC` (stereo not drawn) [Compound S19s] returned an IC50 in [1] of 0.017 µM. For the same compound, in data set [4], the stability in metabolism result was “unstable in metabolism”.

Turning to `C=CC(=O)NC1Cn2c(c(-c3ccc(Oc4ccccc4)cc3)c3c(N)ncnc32)C1=C` (stereo not drawn) [Compound S18s, reference compound], the IC50 in data set [1] was determined as 0.016 µM; in [3], 5.04 µM. The stability in metabolism entry in data set [4] is “unstable in metabolism”. Also, the “T/C (%)” value is 100% in data set [5] (15 mg/kg, day 0); 53.51% in [5] (15 mg/kg, day 6); 47.28% in [5] (15 mg/kg, day 8); 37.73% in data set [5] (15 mg/kg, day 11); 34.97% in data set [5] (15 mg/kg, day 13).

As usually defined, the bioavailability is the share of a dose that reaches the circulation, judged against a reference dose that is usually intravenous. A high value points to much systemic uptake. Broadly, the Vd is a proportionality between amount in the body and measured concentration, not a real space. Usually clearance stands for a measure of how efficiently the substance is removed, as volume per time. A low value points to a low capacity for elimination. In general, half-life refers to the time in which the quantity being followed falls by half. By AUC is commonly meant concentration integrated over time. Higher therefore signals more exposure. As a reminder, the Cmax is the peak of the concentration-time curve. In general, Tmax refers to the time at which the peak concentration occurs. As to `C=C1c2c(-c3ccc(C(=O)Nc4ccccn4)cc3)c3c(N)ncnc3n2C[C@H]1NC(=O)C#CC` [Compound S17016], the “Absolute value of peak area, M0: parent compound” value was determined as 19033 in [6], 20285 in [8] and 12675 in data set [9]. In addition, the “M0: parent compound, share of peak area” value was “(97.82%)” in [6], “(97.45%)” in [8] and “(84.07%)” in data set [9]. Further, the values for the IC50 in data set [7], in data set [1] and in data set [3] were 0.0005 µM, 0.003 µM and 3.15 µM, respectively. Moreover, the Tumor volume in data set [5] (5 mg/kg) was 912 mm^3 and 912 ± 114 mm^3; in data set [5] (10 mg/kg) it was 553 mm^3 and 553 ± 56 mm^3. The “T/C (%)” value in [5] (5 mg/kg, day 17) was 49.27%; in data set [5] (10 mg/kg, day 0), 100%; in data set [5] (10 mg/kg, day 5) it was 48.31%; in data set [5] (10 mg/kg, day 8) it was 39.22%; in data set [5] (10 mg/kg, day 10) it was 34.25%; in [5] (10 mg/kg, day 12), 30.90%. Besides, the “T/C (%)” value in data set [5] (10 mg/kg, day 15) was 30.56%; in data set [5] (10 mg/kg, day 17), 29.85%; in data set [10] (15 mg/kg), 30%; in data set [10] (30 mg/kg), 19%. Also, the “TGI (%)” value in data set [5] (5 mg/kg, day 17) is listed as 53.78%; in [5] (10 mg/kg, day 17) it was 74.35%; in [10] (15 mg/kg) it was 73%; in data set [10] (30 mg/kg) it was 83%. Moreover, the “Tumor volume (mm^3) (Day 15)” value is 1034 mm^3 and 1034 ± 202 mm^3 in data set [10] (15 mg/kg, 15 mg/kg); 680 mm^3 and 680 ± 106 mm^3 in data set [10] (30 mg/kg, 30 mg/kg). The bioavailability in the data set “in vivo” (in vivo) came out at 24.8%. In addition, the distribution volume (Vd) in the data set “in vivo” (in vivo, iv, 1 mg/kg) was 0.221 L/kg. In addition, in the data set “in vivo” (in vivo, iv, 1 mg/kg), the clearance was 3.33 mL/min/kg. For the same compound, the half-life in “in vivo” (in vivo, iv, 1 mg/kg) is 75.6 min. The exposure (AUC) in “in vivo” (in vivo, po, 3 mg/kg) is 3860 ng·h/mL. Moreover, the Cmax in the data set “in vivo” (in vivo, po, 3 mg/kg) was 2700 ng/mL. Also, the time of peak concentration (Tmax) in “in vivo” (in vivo, po, 3 mg/kg) was 15 min.

Consider `CC#CC(=O)N1CCC[C@H]1c1nc(-c2ccc(C(=O)Nc3ccccn3)cc2)c2c(N)nccn12` [Acalabrutinib], for which the results for the IC50 in data set [1] and in [3] were 0.023 µM and 38.2 µM, respectively.

For the compound `C=CC(=O)N1CCC[C@@H](n2nc(-c3ccc(Oc4ccccc4)cc3)c3c(N)ncnc32)C1` [Ibrutinib, reference compound], the values for the IC50 in data set [1] and in [3] were 0.005 µM and 12.9 µM, respectively. For the same compound, in data set [5] (25 mg/kg), the Tumor volume was 661 mm^3 and 661 ± 168 mm^3. Besides, the “TGI (%)” value came out at 68.18% in data set [5] (25 mg/kg, day 17) and 64% in data set [10] (25 mg/kg). Also, the “Tumor volume (mm^3) (Day 15)” value in data set [10] (25 mg/kg, 25 mg/kg) was 1323 mm^3 and 1323 ± 195 mm^3. Further, in “in vivo” (plasma, oral, 3 mg/kg), the bioavailability was determined as 4%. In the data set “in vivo” (plasma, po, 3 mg/kg), this compound had an area under the curve (AUC) of 57 ng·h/mL.

Turning to `C=CC(=O)N[C@@H]1CCc2c(-c3ccc(Oc4ccccc4)cc3)c3c(N)ncnc3n2C1` [Compound S1], the IC50 in data set [1] turned out to be 0.006 µM; in data set [3], 94.7 µM. Also, in data set [4], the stability in metabolism entry is on record as “unstable in metabolism”. Moreover, the BTK inhibitory activity entry on BTK is listed as “high BTK inhibitory activity”.

In the case of `CC#CC(=O)N[C@@H]1CCc2c(-c3ccc(Oc4ccccc4)cc3)c3c(N)ncnc3n2C1` [Compound S10], the IC50 in [7] was less than 0.01 µM; in data set [1], 0.03 µM; in data set [3] it was 8.72 µM. The stability in metabolism entry in data set [4] is on record as “unstable in metabolism”. Moreover, at BTK, the BTK inhibitory activity result is listed as “high BTK inhibitory activity”.

Values taken from US12384795B2, “Pyrimido[5,4-b]pyrrolizin compound, optical isomer thereof, preparation method therefor and use thereof” (SHANGHAI INSTITUTE OF MATERIA MEDICA, CHINESE ACADEMY OF …, priority 2019, dated 2025).
